# In patent publication US12215085B2 (priority 2019, dated 2025):
# Where a name gives a salt, the structure may show the parent alone. Marks after values point to notes of the source that are not given here.
# Legend:
# [1] = target: cholinesterase D (Homo sapiens, UniProt P06276); format: biochemical; details: in vitro tests; multiple of rivastigmine
# [2] = system: cholinesterase B (Homo sapiens); experiment: In vitro inhibition of cholinesterase B; format: biochemical; details: in vitro tests; multiple of rivastigmine
# Sequence of cholinesterase B (Homo sapiens) (P22303 32-614): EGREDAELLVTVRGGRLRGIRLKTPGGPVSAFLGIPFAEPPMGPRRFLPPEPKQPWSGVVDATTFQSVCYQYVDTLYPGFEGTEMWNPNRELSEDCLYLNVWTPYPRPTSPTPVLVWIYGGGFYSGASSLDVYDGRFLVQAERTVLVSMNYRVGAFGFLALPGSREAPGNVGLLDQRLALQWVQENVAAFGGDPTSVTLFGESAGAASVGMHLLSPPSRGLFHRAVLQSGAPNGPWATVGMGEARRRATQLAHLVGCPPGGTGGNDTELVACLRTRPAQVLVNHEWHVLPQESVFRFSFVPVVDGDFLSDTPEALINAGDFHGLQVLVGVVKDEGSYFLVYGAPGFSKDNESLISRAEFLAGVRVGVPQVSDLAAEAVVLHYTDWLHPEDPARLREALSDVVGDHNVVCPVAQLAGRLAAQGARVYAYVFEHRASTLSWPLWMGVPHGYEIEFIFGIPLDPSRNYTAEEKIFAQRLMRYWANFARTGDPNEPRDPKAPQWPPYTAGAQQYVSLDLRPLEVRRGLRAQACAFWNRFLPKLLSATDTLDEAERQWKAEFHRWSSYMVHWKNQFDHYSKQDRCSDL
# [3] = system: rats with common carotid artery occlusion-induced vascular dementia; experiment: Water maze test, common carotid artery occlusion-induced vascular dementia rats; format: in vivo, rat; details: for orientation angle for reaching the platform / speed for reaching the platform / swimming path length for reaching the platform / time for reaching the platform: x ± s
# Description: (§1) A rat blood vessel dementia model was made according to the references [ZHAO Xian-lin, FANG Xiu-bin, LI Dong-pei. Establishment of Vascular Dementia Model in Rats, J Chin Med Univ, 2002, 31 (3): 166-168; WANG Yong-yan, Zhang Bo-li, Editor-in-chief. Modern Chinese Medicine Clinic and Research on Vascular Dementia, People's Medical Publishing House, October 2003, First Version 214]: Chloral hydrate 0.4 g/kg was intraperitoneally injected for anesthetizing rats, and bilateral common carotid arteries were isolated and ligated. The animals were fed for 16 weeks, divided into groups on the last 7 days, and administered. The normal control group and the model group were administrated through the intragastric route with distilled water by 0.5 ml/100 g, the positive control group was administrated through the intragastric route with donepezil hydrochloride by 1.75 mg/kg (equivalent to 3.85 times the clinical daily dosage of 5 mg/70 kg), the low, medium and high-dose groups of Crystal Form A of octahydroaminoacridine succinate were administrated through the intragastric route with Crystal Form A of octahydroaminoacridine succinate by 0.7, 1.4 and 2.8 mg/kg (equivalent to 0.96, 1.92 and 3.85 times the clinical daily dosage of 8 mg/70 kg). The water maze test and the step-down test were carried out after continuous administration for 7 days, and the administration was continued during the test period. The water maze test was continuously performed for 7 days, in the first 6 days, in four different water entry points of quadrants 1, 2, 3 and 4, the time, the swimming path length, the orientation angle and the average speed of the rat reaching the platform were measured, meanwhile, the strategy for reaching the platform adopted by rats was observed, on the 7th day, the platform was removed, the number of rats crossing the platform in 2 minutes, the residence time in the platform area, the residence time in the platform quadrants, the percentage of the swimming path length in the platform area quadrants to the total swimming path length, the average speed and the orientation angle were measured. After the water maze test was finished, the step-down test was performed, and the number of electric shocks (or called as the error number) received by each rat within 5 minutes was recorded as the learning performance. The test was performed again after 24 hours, namely, the memory retention test, and the latent period for stepping-down the platform for the first time and the error number in five minutes were recorded. After the step-down test was finished, the brain was taken quickly for pathological examination, and the pathological changes of the hippocampus and the cortex were observed.
# [4] = system: rats with beta-amyloid induced senile dementia; experiment: Water maze test, beta-amyloid induced senile dementia rats; format: in vivo, rat; details: for adopted strategy for reaching the platform (the peripheral type and the random type %) / orientation angle for reaching the platform / speed for reaching the platform / swimming path length for reaching the platform / time for reaching the platform: 1.75 mg/kg intragastric; for orientation angle for reaching the platform / speed for reaching the platform / swimming path length for reaching the platform / time for reaching the platform: x ± s
# [5] = system: rats with common carotid artery occlusion-induced vascular dementia; experiment: Step-down test, common carotid artery occlusion-induced vascular dementia rats; format: in vivo, rat
# Description: as §1
# [6] = system: rats with beta-amyloid induced senile dementia; experiment: Step-down test, beta-amyloid induced senile dementia rats; format: in vivo, rat; details: donepezil hydrochloride 1.75 mg/kg, P<0.05
# [7] = donepezil hydrochloride 1.75 mg/kg, Day 1 to Day 6
# [8] = donepezil hydrochloride 1.75 mg/kg, Day 7
# [9] = donepezil hydrochloride 1.75 mg/kg, Day 7, P<0.05
# [10] = donepezil hydrochloride 1.75 mg/kg, P<0.05 or P<0.01
# [11] = donepezil hydrochloride 1.75 mg/kg, Day 2, P<0.05
# [12] = step-down method, 1.75 mg/kg intragastric, x ± s
# Sequence of cholinesterase D (P06276 29-602): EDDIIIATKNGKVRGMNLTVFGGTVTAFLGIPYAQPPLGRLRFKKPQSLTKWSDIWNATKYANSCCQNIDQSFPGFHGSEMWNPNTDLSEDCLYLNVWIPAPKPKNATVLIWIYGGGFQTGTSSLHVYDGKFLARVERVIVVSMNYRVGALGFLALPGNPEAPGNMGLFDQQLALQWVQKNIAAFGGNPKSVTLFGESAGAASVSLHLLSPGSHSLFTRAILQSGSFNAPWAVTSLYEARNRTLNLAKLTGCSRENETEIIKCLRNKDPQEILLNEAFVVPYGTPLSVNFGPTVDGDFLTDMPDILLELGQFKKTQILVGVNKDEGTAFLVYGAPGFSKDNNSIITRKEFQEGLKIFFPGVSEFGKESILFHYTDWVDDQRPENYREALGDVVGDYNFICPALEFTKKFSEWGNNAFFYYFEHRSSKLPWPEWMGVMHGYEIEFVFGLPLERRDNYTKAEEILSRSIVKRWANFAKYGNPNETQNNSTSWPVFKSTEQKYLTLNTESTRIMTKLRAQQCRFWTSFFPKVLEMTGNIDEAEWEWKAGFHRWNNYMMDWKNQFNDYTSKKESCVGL
smiles,measurement,setting,value
"Nc1c2c(nc3c1CCCC3)CCCC2.O=C(O)CCC(=O)O [octahydroaminoacridine succinate, 9-amino-1,2,3,4,5,6,7,8-octahydroacridine succinate]",inhibiting ability to cholinesterase D relative to rivastigmine,[1],2000 times
same,inhibiting ability to cholinesterase B relative to rivastigmine,[2],500 times
"COc1cc2c(cc1OC)C(=O)C(CC1CCN(Cc3ccccc3)CC1)C2 (centres unmarked) [Positive control group, donepezil hydrochloride]",adopted strategy for reaching the platform (the peripheral type and the random type %),"[3]; Day 1, 1.75 mg/kg intragastric",65.00* %
same,orientation angle for reaching the platform,"[3]; Day 1, 1.75 mg/kg intragastric",58.85 ± 15.35 °
same,speed for reaching the platform,"[3]; Day 1, 1.75 mg/kg intragastric",21.15 ± 5.56 cm/s
same,swimming path length for reaching the platform,"[3]; Day 1, 1.75 mg/kg intragastric",1105.00 ± 578.29 cm
same,time for reaching the platform,"[3]; Day 1, 1.75 mg/kg intragastric",58.42 ± 23.42 s
same,adopted strategy for reaching the platform (the peripheral type and the random type %),"[3]; Day 2, 1.75 mg/kg intragastric",62.50%
same,orientation angle for reaching the platform,"[3]; Day 2, 1.75 mg/kg intragastric",61.54 ± 17.41 °
same,speed for reaching the platform,"[3]; Day 2, 1.75 mg/kg intragastric",22.68 ± 5.82 cm/s
same,swimming path length for reaching the platform,"[3]; Day 2, 1.75 mg/kg intragastric",579.08 ± 316.12 cm
same,time for reaching the platform,"[3]; Day 2, 1.75 mg/kg intragastric",33.96 ± 17.06 s
same,adopted strategy for reaching the platform (the peripheral type and the random type %),"[3]; Day 3, 1.75 mg/kg intragastric",62.50* %
same,orientation angle for reaching the platform,"[3]; Day 3, 1.75 mg/kg intragastric",48.94 ± 13.42 °
same,speed for reaching the platform,"[3]; Day 3, 1.75 mg/kg intragastric",21.19 ± 3.15 cm/s
same,swimming path length for reaching the platform,"[3]; Day 3, 1.75 mg/kg intragastric",606.25 ± 279.18 cm
same,time for reaching the platform,"[3]; Day 3, 1.75 mg/kg intragastric",30.17 ± 14.50 s
same,adopted strategy for reaching the platform (the peripheral type and the random type %),"[3]; Day 4, 1.75 mg/kg intragastric",67.50%
same,orientation angle for reaching the platform,"[3]; Day 4, 1.75 mg/kg intragastric",58.94 ± 22.56 °
same,speed for reaching the platform,"[3]; Day 4, 1.75 mg/kg intragastric",25.79 ± 9.79 cm/s
same,swimming path length for reaching the platform,"[3]; Day 4, 1.75 mg/kg intragastric",615.78 ± 385.17 cm
same,time for reaching the platform,"[3]; Day 4, 1.75 mg/kg intragastric",23.92 ± 12.45 s
same,adopted strategy for reaching the platform (the peripheral type and the random type %),"[3]; Day 5, 1.75 mg/kg intragastric",50.00%
same,orientation angle for reaching the platform,"[3]; Day 5, 1.75 mg/kg intragastric",49.64 ± 17.65 °
same,speed for reaching the platform,"[3]; Day 5, 1.75 mg/kg intragastric",24.88 ± 8.76 cm/s
same,swimming path length for reaching the platform,"[3]; Day 5, 1.75 mg/kg intragastric",586.80 ± 405.09 cm
same,time for reaching the platform,"[3]; Day 5, 1.75 mg/kg intragastric",21.94 ± 11.16 s
same,adopted strategy for reaching the platform (the peripheral type and the random type %),"[3]; Day 6, 1.75 mg/kg intragastric",47.50** %
same,orientation angle for reaching the platform,"[3]; Day 6, 1.75 mg/kg intragastric",53.54 ± 19.68 °
same,speed for reaching the platform,"[3]; Day 6, 1.75 mg/kg intragastric",21.02 ± 6.67 cm/s
same,swimming path length for reaching the platform,"[3]; Day 6, 1.75 mg/kg intragastric",348.06 ± 202.65 cm
same,time for reaching the platform,"[3]; Day 6, 1.75 mg/kg intragastric",17.87 ± 12.66 s
same,Average speed,"[3]; Day 7, 1.75 mg/kg intragastric",24.60 ± 10.18 cm/s
same,Number of crossing the platform,"[3]; Day 7, 1.75 mg/kg intragastric",9.40 ± 5.16
same,Orientation angle,"[3]; Day 7, 1.75 mg/kg intragastric",9.40 ± 5.17 °
same,Swimming path length in the platform area/total swimming path length × 100%,"[3]; Day 7, 1.75 mg/kg intragastric",33.02 ± 9.98%
same,Time in the platform area,"[3]; Day 7, 1.75 mg/kg intragastric",3.06 ± 2.24 s
same,Time in the platform quadrants,"[3]; Day 7, 1.75 mg/kg intragastric",42.21 ± 12.71 s
same,orientation angle and swimming speed vs model group,[3]; [7],not obviously changed
same,swimming path length for reaching the platform vs model group,"[3]; donepezil hydrochloride 1.75 mg/kg, Day 2, Day 3 and Day 6, P<0.05",obviously shortened
same,latent period for reaching the platform vs model group,"[3]; donepezil hydrochloride 1.75 mg/kg, Day 5 and Day 6, P<0.05 or P<0.01",obviously shortened
same,average speed and orientation angle vs model group,[3]; [8],not obviously changed
same,residence time in the platform quadrants within 2 minutes vs model group,[3]; [9],obviously increased
same,"number of crossing the platform, residence time in the platform area, and percentage of the swimming path length in the platform area quadrants to the total swimming path length vs model group","[3]; donepezil hydrochloride 1.75 mg/kg, Day 7, no statistical significance",increased trend
same,conversion from the peripheral type or the random type to the tendency type or the linear type in the strategy for looking for the platform,[3]; [10],obviously increased
same,adopted strategy for reaching the platform (the peripheral type and the random type %),[4]; Day 1,97.50%
same,orientation angle for reaching the platform,[4]; Day 1,75.41 ± 22.31 °
same,speed for reaching the platform,[4]; Day 1,16.03 ± 4.22 cm/s
same,swimming path length for reaching the platform,[4]; Day 1,1029.43 ± 453.12 cm
same,time for reaching the platform,[4]; Day 1,72.43 ± 30.97 s
same,adopted strategy for reaching the platform (the peripheral type and the random type %),[4]; Day 2,75.00%
same,orientation angle for reaching the platform,[4]; Day 2,50.14 ± 23.02 °
same,speed for reaching the platform,[4]; Day 2,20.78 ± 5.83 cm/s
same,swimming path length for reaching the platform,[4]; Day 2,762.34 ± 562.06 cm
same,time for reaching the platform,[4]; Day 2,38.98 ± 33.812 s
same,adopted strategy for reaching the platform (the peripheral type and the random type %),[4]; Day 3,77.50%
same,orientation angle for reaching the platform,[4]; Day 3,52.85 ± 27.04 °
same,speed for reaching the platform,[4]; Day 3,19.15 ± 4.64 cm/s
same,swimming path length for reaching the platform,[4]; Day 3,572.83 ± 576.82 cm
same,time for reaching the platform,[4]; Day 3,34.41 ± 37.35 s
same,adopted strategy for reaching the platform (the peripheral type and the random type %),[4]; Day 4,62.50** %
same,orientation angle for reaching the platform,[4]; Day 4,46.37 ± 17.86 °
same,speed for reaching the platform,[4]; Day 4,22.07 ± 8.05 cm/s
same,swimming path length for reaching the platform,[4]; Day 4,312.04 ± 316.86 cm
same,time for reaching the platform,[4]; Day 4,29.32 ± 39.89 s
same,adopted strategy for reaching the platform (the peripheral type and the random type %),[4]; Day 5,67.50** %
same,orientation angle for reaching the platform,[4]; Day 5,50.54 ± 24.98 °
same,speed for reaching the platform,[4]; Day 5,19.67 ± 3.94 cm/s
same,swimming path length for reaching the platform,[4]; Day 5,495.72 ± 380.99 cm
same,time for reaching the platform,[4]; Day 5,29.16 ± 24.95 s
same,adopted strategy for reaching the platform (the peripheral type and the random type %),[4]; Day 6,62.50* %
same,orientation angle for reaching the platform,[4]; Day 6,44.21 ± 34.00 °
same,speed for reaching the platform,[4]; Day 6,18.28 ± 5.12 cm/s
same,swimming path length for reaching the platform,[4]; Day 6,413.33 ± 483.35 cm
same,time for reaching the platform,[4]; Day 6,28.99 ± 35.61 s
same,swimming speed vs model group,[4]; [7],not obviously changed
same,latent period for reaching the platform vs model group,"[4]; donepezil hydrochloride 1.75 mg/kg, Day 1 to Day 6, no statistical significance",shortened trend
same,orientation angle vs model group,[4]; [11],obviously decreased
same,swimming path length for reaching the platform vs model group,"[4]; donepezil hydrochloride 1.75 mg/kg, Day 4, P<0.05",obviously shortened
same,average speed and orientation angle vs model group,[4]; [8],not obviously changed
same,number of crossing the platform vs model group,[4]; [9],obviously increased
same,percentage of the swimming path length in the platform area quadrants to the total swimming path length vs model group,[4]; [9],obviously increased
same,residence time in the platform area vs model group,[4]; [9],obviously increased
same,residence time in the platform quadrants within 2 minutes vs model group,[4]; [9],obviously increased
same,conversion from the peripheral type and the random type to the tendency type and the linear type in the strategy for looking for the platform,[4]; [10],obviously increased
same,step-down error number vs model group,"[5]; donepezil hydrochloride 1.75 mg/kg, Day 1 and Day 2, P<0.05",obviously reduced
same,error latency vs model group,[5]; [11],obviously prolonged
same,"Day 1, Error number",[5]; [12],5.40 ± 3.06
same,"Day 2, Error latency",[5]; [12],244.10 ± 77.83 s
same,"Day 2, Error number",[5]; [12],1.10 ± 1.28
same,step-down error number vs model group,[6]; Day 1 and Day 2,obviously reduced
same,error latency vs model group,[6]; Day 2,obviously prolonged
